Test results reported in ChEMBL document CHEMBL1909046, “DrugMatrix in vitro pharmacology data”.
pIC50, pKi: −log10 of the molar value.

Tests used:
[1] = target: 5-hydroxytryptamine receptor 2B (Homo sapiens, UniProt P41595); format: cell membranes, CHO-K1, Membrane; conditions: for IC50: cho-k1; as to all read-outs here: in other assays of this panel Not Active means under 50% inhibition at 10 µM
Substance-P receptor = Substance-P receptor (Homo sapiens, UniProt P25103); format: cell membranes, CHO, Membrane; conditions: cho; also: in other assays of this panel Not Active means under 50% inhibition at 10 µM
Sequence of Substance-P receptor (P25103 whole entry): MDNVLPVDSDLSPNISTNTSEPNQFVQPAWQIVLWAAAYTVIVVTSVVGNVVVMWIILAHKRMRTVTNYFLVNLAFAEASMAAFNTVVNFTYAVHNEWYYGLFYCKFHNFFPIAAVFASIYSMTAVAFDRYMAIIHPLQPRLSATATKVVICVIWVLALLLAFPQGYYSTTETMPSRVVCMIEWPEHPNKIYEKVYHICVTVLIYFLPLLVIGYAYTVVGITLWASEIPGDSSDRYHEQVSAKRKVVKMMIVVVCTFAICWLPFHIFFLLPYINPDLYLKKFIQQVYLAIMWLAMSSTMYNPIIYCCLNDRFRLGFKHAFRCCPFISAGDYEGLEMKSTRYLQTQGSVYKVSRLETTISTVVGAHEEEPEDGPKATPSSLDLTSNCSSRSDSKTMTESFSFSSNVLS

Thromboxane-A synthase = target: T1, Thromboxane-A synthase (Homo sapiens, UniProt P24557); experiment: biochemical; format: tissue-based, Platelet; conditions: platelet;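 also: enzyme inhibition assay with PGH2 supplied as substrate; in other assays of this panel Not Active means under 50% inhibition at 10 µM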
T1 sequence (P24557 whole entry): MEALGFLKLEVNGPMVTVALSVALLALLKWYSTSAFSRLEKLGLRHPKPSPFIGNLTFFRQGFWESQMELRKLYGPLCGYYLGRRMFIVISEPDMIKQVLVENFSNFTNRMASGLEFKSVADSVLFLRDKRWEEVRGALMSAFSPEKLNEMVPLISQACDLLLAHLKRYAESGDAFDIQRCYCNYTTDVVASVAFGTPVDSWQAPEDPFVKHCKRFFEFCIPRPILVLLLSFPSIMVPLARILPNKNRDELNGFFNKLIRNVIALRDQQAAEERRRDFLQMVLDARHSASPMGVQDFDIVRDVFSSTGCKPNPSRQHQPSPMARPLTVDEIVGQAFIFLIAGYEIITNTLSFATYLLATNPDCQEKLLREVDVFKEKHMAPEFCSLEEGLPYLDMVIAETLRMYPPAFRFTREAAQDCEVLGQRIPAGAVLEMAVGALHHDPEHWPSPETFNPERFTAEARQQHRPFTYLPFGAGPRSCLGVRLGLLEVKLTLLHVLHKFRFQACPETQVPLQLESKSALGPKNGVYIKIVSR

[2] = DRUGMATRIX: Tumor Necrosis Factor (TNF), Non-Selective radioligand binding (ligand: [125I] TNF-alpha); format: cell membranes, Membrane; conditions: u-937; Not Active = under 50% inhibition at 10 µM
[3] = DRUGMATRIX: Calcium Channel Type L, Phenylalkylamine radioligand binding (ligand: [3H] (-)-Desmethoxyverapamil (D-888)); format: cell membranes, Rattus norvegicus, Wistar, Brain, Membrane; conditions: Not Active = under 50% inhibition at 10 µM
[4] = target: T2, C-C chemokine receptor type 4 (Homo sapiens, UniProt P51679); format: cell membranes, Membrane; conditions: chem-1; also: in other assays of this panel Not Active means under 50% inhibition at 10 µM
T2 sequence (P51679 whole entry): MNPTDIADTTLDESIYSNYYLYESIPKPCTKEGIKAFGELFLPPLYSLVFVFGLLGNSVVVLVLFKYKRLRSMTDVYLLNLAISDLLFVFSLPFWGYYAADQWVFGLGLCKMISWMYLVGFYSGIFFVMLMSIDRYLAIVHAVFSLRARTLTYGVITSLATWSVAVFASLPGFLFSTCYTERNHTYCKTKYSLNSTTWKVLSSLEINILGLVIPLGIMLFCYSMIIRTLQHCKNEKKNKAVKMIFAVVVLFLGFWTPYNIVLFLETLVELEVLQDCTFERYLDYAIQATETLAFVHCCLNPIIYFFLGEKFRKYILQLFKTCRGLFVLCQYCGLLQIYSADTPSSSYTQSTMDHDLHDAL

D(1A) dopamine receptor = D(1A) dopamine receptor (Homo sapiens, UniProt P21728); experiment: DRUGMATRIX: Dopamine D1 radioligand binding (ligand: [3H] SCH-23390); format: cell membranes, CHO, Membrane; conditions: cho; Not Active = under 50% inhibition at 10 µM
Sequence of D(1A) dopamine receptor (P21728 whole entry): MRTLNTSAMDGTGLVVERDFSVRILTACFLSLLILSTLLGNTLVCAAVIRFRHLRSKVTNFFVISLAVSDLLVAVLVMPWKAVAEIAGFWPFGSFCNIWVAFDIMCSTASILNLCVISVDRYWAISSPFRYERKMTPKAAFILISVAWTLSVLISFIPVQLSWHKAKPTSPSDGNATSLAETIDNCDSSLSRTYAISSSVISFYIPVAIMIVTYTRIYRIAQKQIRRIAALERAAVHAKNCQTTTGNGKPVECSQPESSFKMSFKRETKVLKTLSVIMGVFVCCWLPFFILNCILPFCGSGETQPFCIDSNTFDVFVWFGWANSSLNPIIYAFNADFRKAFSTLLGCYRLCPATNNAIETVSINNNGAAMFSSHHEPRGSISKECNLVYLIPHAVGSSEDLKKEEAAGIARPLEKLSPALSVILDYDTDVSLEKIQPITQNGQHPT

[5] = DRUGMATRIX: Glutamate, Kainate radioligand binding (ligand: [3H] Kainic acid); format: cell membranes, Rattus norvegicus, Wistar, Brain, Membrane; conditions: Not Active = under 50% inhibition at 10 µM
Glycine receptor = Glycine receptor (Rattus norvegicus, UniProt P22771+P24524+P07727+P20781); format: cell membranes, Wistar, Spinal cord, Membrane; also: in other assays of this panel Not Active means under 50% inhibition at 10 µM
[6] = target: T3, Neuropeptide Y receptor type 2 (Homo sapiens, UniProt P49146); format: cell membranes, Membrane; conditions: kan-ts; also: in other assays of this panel Not Active means under 50% inhibition at 10 µM
T3 sequence (P49146 whole entry): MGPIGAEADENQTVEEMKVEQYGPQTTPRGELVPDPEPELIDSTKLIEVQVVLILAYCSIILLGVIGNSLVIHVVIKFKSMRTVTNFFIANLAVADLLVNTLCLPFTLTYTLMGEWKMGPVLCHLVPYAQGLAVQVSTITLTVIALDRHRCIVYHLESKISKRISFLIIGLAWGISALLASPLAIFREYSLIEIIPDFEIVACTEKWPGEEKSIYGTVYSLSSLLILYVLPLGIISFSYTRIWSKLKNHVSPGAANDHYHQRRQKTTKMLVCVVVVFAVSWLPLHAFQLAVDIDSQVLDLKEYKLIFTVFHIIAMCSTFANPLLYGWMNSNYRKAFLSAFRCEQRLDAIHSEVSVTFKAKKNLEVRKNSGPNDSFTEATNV

[7] = target: Platelet-activating factor receptor (Homo sapiens, UniProt P25105); experiment: biochemical; format: tissue-based; conditions: platelet; also: in other assays of this panel Not Active means under 50% inhibition at 10 µM
Sequence of Platelet-activating factor receptor (P25105 whole entry): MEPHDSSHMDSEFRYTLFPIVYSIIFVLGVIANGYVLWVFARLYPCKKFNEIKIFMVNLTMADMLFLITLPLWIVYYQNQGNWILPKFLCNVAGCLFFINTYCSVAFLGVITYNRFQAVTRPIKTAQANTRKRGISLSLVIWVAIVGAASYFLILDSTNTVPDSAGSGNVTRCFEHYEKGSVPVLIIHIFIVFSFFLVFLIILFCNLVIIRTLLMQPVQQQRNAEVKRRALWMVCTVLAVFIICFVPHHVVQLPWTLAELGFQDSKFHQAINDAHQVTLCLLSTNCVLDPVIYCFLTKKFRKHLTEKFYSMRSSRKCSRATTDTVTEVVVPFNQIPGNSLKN

Caspase-1 = target: T4, Caspase-1 (Homo sapiens, UniProt P29466); set-up: species or system Escherichia coli
T4 sequence (P29466 whole entry): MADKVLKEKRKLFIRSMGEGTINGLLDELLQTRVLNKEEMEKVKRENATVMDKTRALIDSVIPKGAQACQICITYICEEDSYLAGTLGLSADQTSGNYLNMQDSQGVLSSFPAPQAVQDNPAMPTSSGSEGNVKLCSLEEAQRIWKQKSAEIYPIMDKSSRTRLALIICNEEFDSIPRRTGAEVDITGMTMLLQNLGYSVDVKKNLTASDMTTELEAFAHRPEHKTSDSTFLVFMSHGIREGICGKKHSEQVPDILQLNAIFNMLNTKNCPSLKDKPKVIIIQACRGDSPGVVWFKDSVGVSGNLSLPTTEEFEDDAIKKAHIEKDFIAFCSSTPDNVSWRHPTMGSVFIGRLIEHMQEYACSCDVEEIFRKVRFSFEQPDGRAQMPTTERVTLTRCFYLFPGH

[8] = target: Mitogen-activated protein kinase 14 (Homo sapiens, UniProt Q16539); set-up: species or system Escherichia coli
Sequence of Mitogen-activated protein kinase 14 (Q16539 whole entry): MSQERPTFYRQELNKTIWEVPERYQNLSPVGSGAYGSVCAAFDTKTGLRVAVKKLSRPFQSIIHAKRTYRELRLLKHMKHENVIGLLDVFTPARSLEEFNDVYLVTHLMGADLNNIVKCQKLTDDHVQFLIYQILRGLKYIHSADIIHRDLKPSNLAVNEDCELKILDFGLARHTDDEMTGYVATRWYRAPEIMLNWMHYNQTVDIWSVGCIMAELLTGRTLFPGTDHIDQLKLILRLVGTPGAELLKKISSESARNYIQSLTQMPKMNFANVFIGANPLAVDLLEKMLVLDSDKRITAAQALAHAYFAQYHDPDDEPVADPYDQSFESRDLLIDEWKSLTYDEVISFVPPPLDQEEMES

Adenosine receptor A2a = Adenosine receptor A2a (Homo sapiens, UniProt P29274); experiment: DRUGMATRIX: Adenosine A2A radioligand binding (ligand: […]); format: cell membranes, HEK293, Membrane; conditions: hek293; Not Active = under 50% inhibition at 10 µM
Sequence of Adenosine receptor A2a (P29274 whole entry): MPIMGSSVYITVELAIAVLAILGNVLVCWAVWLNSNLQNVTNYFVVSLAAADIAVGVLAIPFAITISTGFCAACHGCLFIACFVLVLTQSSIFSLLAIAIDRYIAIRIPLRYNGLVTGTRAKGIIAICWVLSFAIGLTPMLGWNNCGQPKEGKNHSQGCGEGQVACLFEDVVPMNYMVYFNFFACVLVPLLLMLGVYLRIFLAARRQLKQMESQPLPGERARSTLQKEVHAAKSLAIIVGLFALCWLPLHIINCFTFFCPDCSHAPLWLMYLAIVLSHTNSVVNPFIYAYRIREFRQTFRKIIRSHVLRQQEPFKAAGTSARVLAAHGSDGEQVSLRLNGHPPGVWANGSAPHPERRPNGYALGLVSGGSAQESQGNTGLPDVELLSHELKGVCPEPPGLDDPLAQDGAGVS

Adenosine receptor A3 = target: T5, Adenosine receptor A3 (Homo sapiens, UniProt P0DMS8); format: cell membranes, CHO-K1, Membrane; conditions: for IC50: cho-k1
T5 sequence (P0DMS8 whole entry): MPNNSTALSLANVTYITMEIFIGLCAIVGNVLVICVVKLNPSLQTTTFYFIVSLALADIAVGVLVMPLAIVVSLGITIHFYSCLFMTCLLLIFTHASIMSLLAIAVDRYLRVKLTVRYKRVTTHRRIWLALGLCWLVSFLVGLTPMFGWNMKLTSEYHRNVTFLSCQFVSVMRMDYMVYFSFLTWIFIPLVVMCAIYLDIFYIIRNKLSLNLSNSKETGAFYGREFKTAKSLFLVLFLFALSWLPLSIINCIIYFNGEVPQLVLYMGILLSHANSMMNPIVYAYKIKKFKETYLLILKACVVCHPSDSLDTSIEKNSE

Sequence of 5-hydroxytryptamine receptor 2B (P41595 whole entry): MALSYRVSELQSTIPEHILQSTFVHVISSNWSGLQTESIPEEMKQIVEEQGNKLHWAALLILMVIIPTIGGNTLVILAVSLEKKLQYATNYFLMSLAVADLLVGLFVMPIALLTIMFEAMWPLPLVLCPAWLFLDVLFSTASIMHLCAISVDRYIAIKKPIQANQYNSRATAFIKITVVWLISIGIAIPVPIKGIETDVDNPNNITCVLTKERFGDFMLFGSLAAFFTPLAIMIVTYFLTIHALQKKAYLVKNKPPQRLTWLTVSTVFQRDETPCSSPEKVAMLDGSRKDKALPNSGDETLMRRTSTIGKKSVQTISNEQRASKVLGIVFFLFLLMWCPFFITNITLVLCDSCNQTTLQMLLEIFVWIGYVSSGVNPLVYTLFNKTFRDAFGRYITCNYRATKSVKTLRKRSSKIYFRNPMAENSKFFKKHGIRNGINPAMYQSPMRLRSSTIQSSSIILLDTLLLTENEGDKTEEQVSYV

Row | SMILES | IC50 [1] | IC50 (Substance-P receptor) | IC50 (Thromboxane-A synthase) | IC50 [2] | Ki [2] | IC50 [3] | Ki [3] | IC50 [4] | IC50 (D(1A) dopamine receptor) | IC50 [5] | Ki [5] | IC50 (Glycine receptor) | IC50 [6] | IC50 [7] | IC50 (Caspase-1) | IC50 [8] | IC50 (Adenosine receptor A2a) | IC50 (Adenosine receptor A3) | also measured
1 | Nc1nnc(-c2cccc(Cl)c2Cl)c(N)n1 [LAMOTRIGINE] | Not Active | Not Active | Not Active | Not Active | Not Active | Not Active | Not Active | Not Active | Not Active | Not Active | Not Active | Not Active | Not Active | Not Active | Not Active | Not Active | Not Active | Not Active | –
2 | CCC[C@@H]1C[C@@H](C(=O)N[C@@H]([C@H]2O[C@H](SC)[C@H](O)[C@@H](O)[C@H]2O)[C@@H](C)O)N(C)C1 [LINCOMYCIN] | Not Active | Not Active | Not Active | Not Active | Not Active | Not Active | Not Active | Not Active | Not Active | Not Active | Not Active | Not Active | Not Active | Not Active | Not Active | Not Active | Not Active | Not Active | –
3 | NCCCC[C@H](N[C@@H](CCc1ccccc1)C(=O)O)C(=O)N1CCC[C@H]1C(=O)O [LISINOPRIL ANHYDROUS] | Not Active | Not Active | Not Active | Not Active | Not Active | Not Active | Not Active | Not Active | Not Active | Not Active | Not Active | Not Active | Not Active | Not Active | Not Active | Not Active | Not Active | Not Active | –
4 | COS(C)(=O)=O [METHANESULFONIC ACID METHYL ESTER] | Not Active | Not Active | Not Active | Not Active | Not Active | Not Active | Not Active | Not Active | Not Active | Not Active | Not Active | Not Active | Not Active | Not Active | Not Active | Not Active | Not Active | Not Active | –
5 | COC(=O)c1ccc(O)cc1 [METHYLPARABEN] | Not Active | Not Active | Not Active | Not Active | Not Active | Not Active | Not Active | Not Active | Not Active | Not Active | Not Active | Not Active | Not Active | Not Active | Not Active | Not Active | Not Active | Not Active | –
6 | C[C@](N)(Cc1ccc(O)cc1)C(=O)O [METYROSINE] | Not Active | Not Active | Not Active | Not Active | Not Active | Not Active | Not Active | Not Active | Not Active | Not Active | Not Active | Not Active | Not Active | Not Active | Not Active | Not Active | Not Active | Not Active | –
7 | Clc1ccc(C(c2ccccc2Cl)C(Cl)Cl)cc1 (stereo unspecified) [MITOTANE] | – | Not Active | Not Active | Not Active | Not Active | Not Active | Not Active | Not Active | Not Active | Not Active | Not Active | Not Active | Not Active | Not Active | Not Active | Not Active | Not Active | – | pIC50 ([1]; read-out: IC50): 5.32; pKi ([1]; read-out: Ki): 5.51; pIC50 (Adenosine receptor A3; read-out: IC50): 5.13; pKi (Adenosine receptor A3; read-out: Ki): 5.38
8 | O=C1c2c(O)ccc(O)c2C(=O)c2c(NCCNCCO)ccc(NCCNCCO)c21 [MITOXANTRONE] | Not Active | Not Active | Not Active | Not Active | Not Active | Not Active | Not Active | Not Active | Not Active | Not Active | Not Active | Not Active | Not Active | Not Active | Not Active | Not Active | Not Active | Not Active | –
